Measured values published in the NIST ThermoML archive (doi:10.1021/je060228n).
± gives the expanded uncertainty stated by the source.

What was measured:
[1] = xn = mol fraction of the nth substance listed; conditions: 101 kPa, Liquid
[2] = refractive index (Na D-line) (dimensionless); xn = mol fraction of the nth substance listed; conditions: 298.15 K, 101 kPa, Liquid

CCOS(=O)(=O)[O-].CCn1cc[n+](C)c1 [1-ethyl-3-methylimidazolium ethyl sulfate] + O
mass density ([1]; 298.15 K, x2 = 0): 1237.63 ± 1.3 kg/m3
speed of sound ([1]; 298.15 K, x2 = 0): 1679.1 ± 13 m/s
viscosity ([1]; 298.15 K, x2 = 0): 97.58 ± 4.5 mPa·s
mass density ([1]; 298.15 K, x2 = 0.0715): 1236.14 ± 1.2 kg/m3
speed of sound ([1]; 298.15 K, x2 = 0.0715): 1687 ± 13 m/s
viscosity ([1]; 298.15 K, x2 = 0.0715): 82.01 ± 2.9 mPa·s
mass density ([1]; 298.15 K, x2 = 0.2089): 1232.72 ± 1.2 kg/m3
speed of sound ([1]; 298.15 K, x2 = 0.2089): 1696.7 ± 13 m/s
viscosity ([1]; 298.15 K, x2 = 0.2089): 57.84 ± 0.73 mPa·s
mass density ([1]; 298.15 K, x2 = 0.3227): 1229 ± 1.1 kg/m3
speed of sound ([1]; 298.15 K, x2 = 0.3227): 1707.2 ± 13 m/s
viscosity ([1]; 298.15 K, x2 = 0.3227): 42.89 ± 0.76 mPa·s
mass density ([1]; 298.15 K, x2 = 0.5041): 1220 ± 1 kg/m3
speed of sound ([1]; 298.15 K, x2 = 0.5041): 1729 ± 13 m/s
viscosity ([1]; 298.15 K, x2 = 0.5041): 24.74 ± 0.44 mPa·s
mass density ([1]; 298.15 K, x2 = 0.5975): 1212.9 ± 1 kg/m3
speed of sound ([1]; 298.15 K, x2 = 0.5975): 1741.6 ± 13 m/s
viscosity ([1]; 298.15 K, x2 = 0.5975): 17.52 ± 0.32 mPa·s
mass density ([1]; 298.15 K, x2 = 0.7441): 1192.2 ± 0.9 kg/m3
speed of sound ([1]; 298.15 K, x2 = 0.7441): 1773 ± 14 m/s
viscosity ([1]; 298.15 K, x2 = 0.7441): 10.58 ± 0.2 mPa·s
mass density ([1]; 298.15 K, x2 = 0.854): 1159.2 ± 0.8 kg/m3
speed of sound ([1]; 298.15 K, x2 = 0.854): 1792.6 ± 14 m/s
viscosity ([1]; 298.15 K, x2 = 0.854): 5.848 ± 0.13 mPa·s
mass density ([1]; 298.15 K, x2 = 0.9506): 1084.4 ± 0.5 kg/m3
speed of sound ([1]; 298.15 K, x2 = 0.9506): 1709.2 ± 13 m/s
viscosity ([1]; 298.15 K, x2 = 0.9506): 2.316 ± 0.054 mPa·s
mass density ([1]; 313.15 K, x2 = 0): 1227.51 ± 1.3 kg/m3
speed of sound ([1]; 313.15 K, x2 = 0): 1641.6 ± 13 m/s
viscosity ([1]; 313.15 K, x2 = 0): 50.01 ± 0.52 mPa·s
mass density ([1]; 313.15 K, x2 = 0.0715): 1225.97 ± 1.2 kg/m3
speed of sound ([1]; 313.15 K, x2 = 0.0715): 1640.1 ± 13 m/s
viscosity ([1]; 313.15 K, x2 = 0.0715): 43.36 ± 0.82 mPa·s
mass density ([1]; 313.15 K, x2 = 0.2089): 1222.53 ± 1.1 kg/m3
speed of sound ([1]; 313.15 K, x2 = 0.2089): 1660.8 ± 13 m/s
viscosity ([1]; 313.15 K, x2 = 0.2089): 32.09 ± 0.6 mPa·s
mass density ([1]; 313.15 K, x2 = 0.3227): 1218.87 ± 1.1 kg/m3
speed of sound ([1]; 313.15 K, x2 = 0.3227): 1671 ± 13 m/s
viscosity ([1]; 313.15 K, x2 = 0.3227): 24.76 ± 0.46 mPa·s
mass density ([1]; 313.15 K, x2 = 0.5041): 1209.82 ± 0.99 kg/m3
speed of sound ([1]; 313.15 K, x2 = 0.5041): 1692.6 ± 13 m/s
viscosity ([1]; 313.15 K, x2 = 0.5041): 15.11 ± 0.29 mPa·s
mass density ([1]; 313.15 K, x2 = 0.5975): 1202.43 ± 0.94 kg/m3
speed of sound ([1]; 313.15 K, x2 = 0.5975): 1703.9 ± 13 m/s
viscosity ([1]; 313.15 K, x2 = 0.5975): 10.98 ± 0.21 mPa·s
mass density ([1]; 313.15 K, x2 = 0.7441): 1181.55 ± 0.85 kg/m3
speed of sound ([1]; 313.15 K, x2 = 0.7441): 1734.5 ± 13 m/s
viscosity ([1]; 313.15 K, x2 = 0.7441): 6.715 ± 0.14 mPa·s
mass density ([1]; 313.15 K, x2 = 0.854): 1146.19 ± 0.72 kg/m3
speed of sound ([1]; 313.15 K, x2 = 0.854): 1749.2 ± 13 m/s
viscosity ([1]; 313.15 K, x2 = 0.854): 3.818 ± 0.087 mPa·s
mass density ([1]; 313.15 K, x2 = 0.9506): 1076.1 ± 0.49 kg/m3
speed of sound ([1]; 313.15 K, x2 = 0.9506): 1693.1 ± 13 m/s
viscosity ([1]; 313.15 K, x2 = 0.9506): 1.608 ± 0.038 mPa·s
mass density ([1]; 328.15 K, x2 = 0): 1217.47 ± 1.2 kg/m3
speed of sound ([1]; 328.15 K, x2 = 0): 1604.5 ± 12 m/s
viscosity ([1]; 328.15 K, x2 = 0): 29.18 ± 0.58 mPa·s
mass density ([1]; 328.15 K, x2 = 0.0715): 1215.87 ± 1.2 kg/m3
speed of sound ([1]; 328.15 K, x2 = 0.0715): 1617.1 ± 12 m/s
viscosity ([1]; 328.15 K, x2 = 0.0715): 25.8 ± 0.5 mPa·s
mass density ([1]; 328.15 K, x2 = 0.2089): 1212.4 ± 1.1 kg/m3
speed of sound ([1]; 328.15 K, x2 = 0.2089): 1622.1 ± 13 m/s
viscosity ([1]; 328.15 K, x2 = 0.2089): 19.82 ± 0.38 mPa·s
mass density ([1]; 328.15 K, x2 = 0.3227): 1208.82 ± 1.1 kg/m3
speed of sound ([1]; 328.15 K, x2 = 0.3227): 1631.7 ± 13 m/s
viscosity ([1]; 328.15 K, x2 = 0.3227): 15.8 ± 0.3 mPa·s
mass density ([1]; 328.15 K, x2 = 0.5041): 1199.54 ± 0.96 kg/m3
speed of sound ([1]; 328.15 K, x2 = 0.5041): 1652.9 ± 13 m/s
viscosity ([1]; 328.15 K, x2 = 0.5041): 10.02 ± 0.2 mPa·s
mass density ([1]; 328.15 K, x2 = 0.5975): 1192.02 ± 0.91 kg/m3
speed of sound ([1]; 328.15 K, x2 = 0.5975): 1665.9 ± 13 m/s
viscosity ([1]; 328.15 K, x2 = 0.5975): 7.45 ± 0.15 mPa·s
mass density ([1]; 328.15 K, x2 = 0.7441): 1170.8 ± 0.8 kg/m3
speed of sound ([1]; 328.15 K, x2 = 0.7441): 1695.3 ± 13 m/s
viscosity ([1]; 328.15 K, x2 = 0.7441): 4.622 ± 0.11 mPa·s
mass density ([1]; 328.15 K, x2 = 0.854): 1135.3 ± 0.7 kg/m3
speed of sound ([1]; 328.15 K, x2 = 0.854): 1704.3 ± 13 m/s
viscosity ([1]; 328.15 K, x2 = 0.854): 2.596 ± 0.06 mPa·s
mass density ([1]; 328.15 K, x2 = 0.9506): 1066.9 ± 0.5 kg/m3
speed of sound ([1]; 328.15 K, x2 = 0.9506): 1668.1 ± 13 m/s
viscosity ([1]; 328.15 K, x2 = 0.9506): 1.189 ± 0.029 mPa·s
refractive index ([2]; x2 = 0): 1.4794 ± 0.0014
refractive index ([2]; x2 = 0.0715): 1.47827 ± 0.0014
refractive index ([2]; x2 = 0.2089): 1.476 ± 0.0014
refractive index ([2]; x2 = 0.3227): 1.47344 ± 0.0014
refractive index ([2]; x2 = 0.5041): 1.46726 ± 0.0014
refractive index ([2]; x2 = 0.5975): 1.46243 ± 0.0014
refractive index ([2]; x2 = 0.7441): 1.44916 ± 0.0014
refractive index ([2]; x2 = 0.854): 1.42825 ± 0.0014
refractive index ([2]; x2 = 0.9506): 1.38383 ± 0.0014
